Laboratory results from PubChem BioAssay AID1963856 (Molecular Pharmacology Branch, DTP, NCI, 2024).
pIC50: −log10 of the molar value.

Tested on: LG0567-F671-PDC KRAS tumor spheroid viability
Test: Anticancer human tumor LG0567-F671-PDC patient-derived lung adenocarcinoma cell line growth inhibition [KRAS2]
Conditions: spheroids with HUVEC and MSC; for viability, T/C: stronger effect = lower value
Method in brief: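 KRAS-mutant tumor cells were grown as spheroids with HUVEC endothelial cells and human MSCs as stroma. Targeted agents were tested alone and with KRAS pathway inhibitors. Doses started at or near clinical Cmax, or 10 microM, descending half-log.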

[1] = curve of first compound, second compound 0.1 µM
[2] = curve of first compound, second compound 0.316 µM
[3] = curve of first compound, second compound 1 µM
[4] = curve of first compound, second compound 3.16 µM
[5] = curve of first compound, second compound 10 µM
[6] = second compound 0.1 µM, first compound 0.0316 µM
[7] = second compound 0.1 µM, first compound 0.1 µM
[8] = second compound 0.1 µM, first compound 0.316 µM
[9] = second compound 0.1 µM, first compound 1 µM
[10] = second compound 0.1 µM, first compound 3.16 µM
[11] = second compound 0.316 µM, first compound 0.0316 µM
[12] = second compound 0.316 µM, first compound 0.1 µM
[13] = second compound 0.316 µM, first compound 0.316 µM
[14] = second compound 0.316 µM, first compound 1 µM
[15] = second compound 0.316 µM, first compound 3.16 µM
[16] = second compound 1 µM, first compound 0.0316 µM
[17] = second compound 1 µM, first compound 0.1 µM
[18] = second compound 1 µM, first compound 0.316 µM
[19] = second compound 1 µM, first compound 1 µM
[20] = second compound 1 µM, first compound 3.16 µM
[21] = second compound 3.16 µM, first compound 0.0316 µM
[22] = second compound 3.16 µM, first compound 0.1 µM
[23] = second compound 3.16 µM, first compound 0.316 µM
[24] = second compound 3.16 µM, first compound 1 µM
[25] = second compound 3.16 µM, first compound 3.16 µM
[26] = second compound 10 µM, first compound 0.0316 µM
[27] = second compound 10 µM, first compound 0.1 µM
[28] = second compound 10 µM, first compound 0.316 µM
[29] = second compound 10 µM, first compound 1 µM
[30] = second compound 10 µM, first compound 3.16 µM
[31] = second compound 0.1 µM, first compound 10 µM
[32] = second compound 0.316 µM, first compound 10 µM
[33] = second compound 1 µM, first compound 10 µM
[34] = second compound 3.16 µM, first compound 10 µM
[35] = second compound 10 µM, first compound 10 µM
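Further: drug exposure lasted seven days after spheroids formed for three days.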
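Wherever viability, T/C is given: 100% = DMSO vehicle control viability.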

SMILES	pIC50 [1]	pIC50 [2]	pIC50 [3]	pIC50 [4]	pIC50 [5]	viability, T/C [6]	viability, T/C [7]	viability, T/C [8]	viability, T/C [9]	viability, T/C [10]	viability, T/C [11]	viability, T/C [12]	viability, T/C [13]	viability, T/C [14]	viability, T/C [15]	viability, T/C [16]	viability, T/C [17]	viability, T/C [18]	viability, T/C [19]	viability, T/C [20]	also measured
CC(=O)OC12COC1CC(O)C1(C)C(=O)C(O)C3=C(C)C(OC(=O)C(O)C(NC(=O)OC(C)(C)C)c4ccccc4)CC(O)(C(OC(=O)c4ccccc4)C21)C3(C)C (stereo unspecified) + COc1cc2nc(C)nc(NC(C)c3cc(N)cc(C(F)(F)F)c3)c2cc1OC1CCOC1	< 5.50	> 8.00	< 5.50	> 8.00	< 5.50	52.6%	53.9%	57.9%	72.3%	58.7%	40%	52.4%	45.4%	51%	47.6%	69.2%	69.7%	70.5%	78.8%	50.3%	viability, T/C (second compound 0.1 µM, first compound 0.01 µM): 55.8%; viability, T/C (second compound 0.316 µM, first compound 0.01 µM): 48.6%; viability, T/C (second compound 1 µM, first compound 0.01 µM): 54.9%; viability, T/C (second compound 3.16 µM, first compound 0.01 µM): 50.5%; viability, T/C [21]: 46.9%; viability, T/C [22]: 56.3%; viability, T/C [23]: 48.9%; viability, T/C [24]: 57.1%; viability, T/C [25]: 59.1%; viability, T/C (second compound 10 µM, first compound 0.01 µM): 62.7%; viability, T/C [26]: 58.1%; viability, T/C [27]: 53.8%; viability, T/C [28]: 54.6%; viability, T/C [29]: 64.4%; viability, T/C [30]: 62.2%
CN(C)C/C=C/C(=O)Nc1cc2c(Nc3ccc(F)c(Cl)c3)ncnc2cc1O[C@H]1CCOC1	–	–	–	–	–	–	–	–	–	–	–	–	–	–	–	–	–	–	–	–	viability, T/C (compound 0.000316 µM): 100% [middle of 5 runs]; viability, T/C (compound 0.001 µM): 90.1% [middle of 5 runs]; viability, T/C (compound 0.01 µM): 72.6% [middle of 5 runs]; viability, T/C (compound 0.0316 µM): 60.4% [middle of 5 runs]; viability, T/C (compound 0.1 µM): 60.7% [middle of 5 runs]; pIC50 (curve of compound): < 7.00
COc1cc2nccc(Oc3ccc(NC(=O)C4(C(=O)Nc5ccc(F)cc5)CC4)cc3)c2cc1OC + COc1cc2nc(C)nc(NC(C)c3cc(N)cc(C(F)(F)F)c3)c2cc1OC1CCOC1	< 5.00	> 7.50	> 7.50	6.69	6.76	78.6%	71.5%	56.5%	32.8%	101%	61.5%	58.6%	45.4%	25.6%	87.3%	43.8%	53%	42.7%	20.9%	79.8%	viability, T/C [31]: 95.6%; viability, T/C [32]: 74%; viability, T/C [33]: 53.3%; viability, T/C [21]: 63.7%; viability, T/C [22]: 62%; viability, T/C [23]: 42.1%; viability, T/C [24]: 24.8%; viability, T/C [25]: 9.35%; viability, T/C [34]: 72.6%; viability, T/C [26]: 71.7%; viability, T/C [27]: 54.2%; viability, T/C [28]: 49.2%; viability, T/C [29]: 37.4%; viability, T/C [30]: 1.24%; viability, T/C [35]: 78.7%
COc1cc2nccc(Oc3ccc(NC(=O)C4(C(=O)Nc5ccc(F)cc5)CC4)cc3)c2cc1OC + CNCc1ccccc1-c1csc(C(C)Nc2nc(C)nc3cc(OC)c(OC)cc23)c1	< 5.00	6.27	6.71	> 7.50	> 7.50	78.2%	66.5%	56.8%	49.6%	33.1%	65.8%	58.8%	51.8%	39.6%	27.2%	55%	58.2%	45.4%	27.8%	23.1%	viability, T/C [31]: 88.5%; viability, T/C [32]: 75.7%; viability, T/C [33]: 38%; viability, T/C [21]: 0.31%; viability, T/C [22]: 0.25%; viability, T/C [23]: 0.87%; viability, T/C [24]: 0.11%; viability, T/C [25]: 0.21%; viability, T/C [34]: 0.7%; viability, T/C [26]: 0.63%; viability, T/C [27]: 0.38%; viability, T/C [28]: 0.97%; viability, T/C [29]: 0.33%; viability, T/C [30]: 2.44%; viability, T/C [35]: 0.91%
O=C(c1cc(Cc2n[nH]c(=O)c3ccccc23)ccc1F)N1CCN(C(=O)C2CC2)CC1 + C=CC(=O)N1CCN(c2nc(=O)n(-c3c(C)ccnc3C(C)C)c3nc(-c4c(O)cccc4F)c(F)cc23)C(C)C1	> 7.50	> 7.50	> 7.50	> 7.50	> 7.50	24.8%	21.5%	23.1%	26.7%	29.2%	23.1%	22.8%	25.1%	21.5%	26.9%	25.8%	25.6%	25.2%	23.6%	25.4%	viability, T/C [31]: 33.6%; viability, T/C [32]: 30.4%; viability, T/C [33]: 30.4%; viability, T/C [21]: 25.1%; viability, T/C [22]: 27.8%; viability, T/C [23]: 25.7%; viability, T/C [24]: 23.8%; viability, T/C [25]: 23.9%; viability, T/C [34]: 31.8%; viability, T/C [26]: 32.1%; viability, T/C [27]: 32.1%; viability, T/C [28]: 31.9%; viability, T/C [29]: 30%; viability, T/C [30]: 30.4%; viability, T/C [35]: 28.3%
